Measured values reported in patent publication US11565998B2, “Succinate prodrug, compositions containing the succinate prodrug and uses thereof” (ABLIVA AB, priority 2019, dated 2023).
Values after ≈ are worked out from the molar mass of the structure shown. Where two headings read alike, the source gives them in different places.

Key:
[1] = Aqueous formulations of Compound 1 (water, PBS, saline), concentration by HPLC; type: physicochemical; details: thermodynamic from solid
[2] = Carbonate instability (calcium and carbonate sources); type: physicochemical; details: for Percentage of Compound 1 remaining compared to T = 0: 1 mg/ml
Procedure: Compound 1 Batch 14 (2-3 mg) was dissolved in HPLC grade water at room temperature (1 mg/ml) containing different sources of calcium and carbonate ions (two concentrations for each source, with the pH recorded) and samples were taken at different time intervals for HPLC analysis.
Calcium and carbonate sources used in the form of inorganic salts: […]

[3] = In vivo pharmacokinetic studies
[4] = Solubility of batches of different crystallinity; type: physicochemical; details: HPLC-grade water, water, thermodynamic from solid, mainly amorphous material (as worded, refers to Example 10); read-out: aqueous solubility
Procedure: Two batches of Compound 1 were generated with different crystallinity. Batch 2 had higher crystallinity than Batch 3, which is regarded as having a higher degree of amorphous Compound 1-Batch 2 is therefore regarded as a more crystalline batch, whereas Batch 3 is regarded as a more amorphous batch. The methods used are discussed in this document.
A sample of the more amorphous Compound 1 batch 3 was added to PBS or water to a final concentration of 258 mg/mL and sonicated for 10 minutes, then shaken for 30 minutes.
A sample of the more crystalline Compound 1 batch 2 was added to HPLC-grade water (Fisher) to a final concentration of 30 mg/mL and sonicated for 10 minutes, then shaken for 30 minutes.
A sample of the more crystalline Compound 1 batch 2 was added to HPLC-grade water (Fisher) to a final concentration of 52 mg/mL and sonicated for 20 minutes, then shaken for 1 hour.
A sample of the more crystalline Compound 1 batch 2 was added to HPLC-grade water (Fisher) to a final concentration of […] and sonicated for 20 minutes, then shaken for 1.5 hours.

[5] = Carbonate concentration dependence; type: physicochemical; details: HPLC water, 1 mg/ml
Procedure: Compound 1 Batch 14 (2-3 mg) was dissolved in HPLC grade water (1 mg/ml) containing different concentrations of calcium carbonate and samples were taken at different time intervals for HPLC analysis.

[6] = Caco-2 bioavailability in vitro assay (apparent permeability); type: in vitro ADME; details: human; Caco-2, apical to basolateral, 0.01 mM, pH 7.4, 1 h, 37° C.
Procedure: (§1) The cell penetrance and potential for oral bioavailability of Compound 1 was tested using a standard caco-2 bioavailability in vitro assay (in brief, confluent Caco-2 cells (L1, A. P., 1992; Grass, G. M; et al., 1992, Volpe, D. A., et al., 2001) in a 24 well Corning Costar Transwell format were provided by In Vitro Technologies Inc. (IVT Inc., Baltimore, Md., USA). The apical chamber contained 0.15 mL Hank's balanced buffer solution (HBBS) pH 7.4, 1% DMSO, 0.1 mM Lucifer Yellow. The basal chamber contained 0.6 mL HBBS pH 7.4, 1% DMSO. Controls and tests were incubated at 37° C. in a humidified incubator, shaken at 130 rpm for 1 h. Lucifer Yellow permeates via the paracellular (between the tight junctions) route only, a high Apparent Permeability (Papp) for Lucifer Yellow indicates cellular damage during assay and all such wells were rejected. Propranolol (good passive permeation with no known transporter effects) & acebutalol (poor passive permeation attenuated by active efflux by P-glycoprotein) were used as reference compounds. Compounds were tested in a uni- and bi-directional format by applying compound to the apical or basal chamber (at 0.01 mM). Compounds in the apical or basal chambers were analysed by HPLC-MS. Results were expressed as Apparent Permeability, Papp, (nm/s), in comparison to other succinate prodrugs, including a number from WO2015/155231.

Caco-2 cells = experiment: as above; type: in vitro ADME; details: Caco-2
Procedure: as §1

- solubility ([1]; aqueous buffer, pH 7.4, aqueous media tested, room temperature (20-25° C.), read-out: aqueous solubility): ≥ 300 mg/mL
- solubility ([1]; water and aqueous systems, water, read-out: solubility): > 500 mg/mL
- solubility ([1]; water and aqueous systems, water, read-out: solubility (molar equivalent)): ~2100 mM
- Percentage of Compound 1 remaining compared to T = 0 ([2]; (NH4)2CO3 (3.4 mM, pH 8.9), batch 14, day 0): 100%
- Percentage of Compound 1 remaining compared to T = 0 ([2]; (NH4)2CO3 (3.4 mM, pH 8.9), batch 14, day 3): 99.6%
- Percentage of Compound 1 remaining compared to T = 0 ([2]; (NH4)2CO3 (3.4 mM, pH 8.9), batch 14, day 17): 85.5%
- Percentage of Compound 1 remaining compared to T = 0 ([2]; (NH4)2CO3 (3.4 mM, pH 9.3), batch 14, day 0): 100%
- Percentage of Compound 1 remaining compared to T = 0 ([2]; (NH4)2CO3 (3.4 mM, pH 9.3), batch 14, day 3): 98.9%
- Percentage of Compound 1 remaining compared to T = 0 ([2]; (NH4)2CO3 (3.4 mM, pH 9.3), batch 14, day 17): 57.5%
- Percentage of Compound 1 remaining compared to T = 0 ([2]; Ca(NO3)2 (0.34 mM, pH 7.3), batch 14, day 0): 100%
- Percentage of Compound 1 remaining compared to T = 0 ([2]; Ca(NO3)2 (0.34 mM, pH 7.3), batch 14, day 3): 101%
- Percentage of Compound 1 remaining compared to T = 0 ([2]; Ca(NO3)2 (0.34 mM, pH 7.3), batch 14, day 17): 97.5%
- Percentage of Compound 1 remaining compared to T = 0 ([2]; Ca(NO3)2 (3.4 mM, pH 7.2), batch 14, day 0): 100%
- Percentage of Compound 1 remaining compared to T = 0 ([2]; Ca(NO3)2 (3.4 mM, pH 7.2), batch 14, day 3): 100%
- Percentage of Compound 1 remaining compared to T = 0 ([2]; Ca(NO3)2 (3.4 mM, pH 7.2), batch 14, day 17): 97.1%
- Percentage of Compound 1 remaining compared to T = 0 ([2]; CaCO3 (0.34 mM, pH 7.6), batch 14, day 0): 100%
- Percentage of Compound 1 remaining compared to T = 0 ([2]; CaCO3 (0.34 mM, pH 7.6), batch 14, day 3): 93.8%
- Percentage of Compound 1 remaining compared to T = 0 ([2]; CaCO3 (0.34 mM, pH 7.6), batch 14, day 17): 50.4%
- Percentage of Compound 1 remaining compared to T = 0 ([2]; CaCO3 (3.4 mM, pH 7.6), batch 14, day 0): 100%
- Percentage of Compound 1 remaining compared to T = 0 ([2]; CaCO3 (3.4 mM, pH 7.6), batch 14, day 3): 93.6%
- Percentage of Compound 1 remaining compared to T = 0 ([2]; CaCO3 (3.4 mM, pH 7.6), batch 14, day 17): 49.5%
- Percentage of Compound 1 remaining compared to T = 0 ([2]; CaCl2 (0.34 mM, pH 7.4), batch 14, day 0): 100%
- Percentage of Compound 1 remaining compared to T = 0 ([2]; CaCl2 (0.34 mM, pH 7.4), batch 14, day 3): 98.4%
- Percentage of Compound 1 remaining compared to T = 0 ([2]; CaCl2 (0.34 mM, pH 7.4), batch 14, day 17): 95.1%
- Percentage of Compound 1 remaining compared to T = 0 ([2]; CaCl2 (3.4 mM, pH 7.5), batch 14, day 0): 100%
- Percentage of Compound 1 remaining compared to T = 0 ([2]; CaCl2 (3.4 mM, pH 7.5), batch 14, day 3): 101%
- Percentage of Compound 1 remaining compared to T = 0 ([2]; CaCl2 (3.4 mM, pH 7.5), batch 14, day 17): 96.7%
- Percentage of Compound 1 remaining compared to T = 0 ([2]; HPLC water (control, pH 6.5), batch 14, day 0): 100%
- Percentage of Compound 1 remaining compared to T = 0 ([2]; HPLC water (control, pH 6.5), batch 14, day 3): 94.3%
- Percentage of Compound 1 remaining compared to T = 0 ([2]; HPLC water (control, pH 6.5), batch 14, day 17): 91.4%
- degradation in aqueous solution with carbonate ions ([2]; vs calcium chloride / nitrate and control): degrades more rapidly
- brain penetration [3]: brain penetrant
- oral bioavailability [3]: high oral bioavailability
- solubility at 1.5 h [4]: 850 mg/mL (≈ 3640 mM)
- Percentage of Compound 1 remaining compared to T = 0 ([5]; CaCO3 (0 mM), batch 14, day 0): 100%
- Percentage of Compound 1 remaining compared to T = 0 ([5]; CaCO3 (0 mM), batch 14, day 7): 98.7%
- Percentage of Compound 1 remaining compared to T = 0 ([5]; CaCO3 (0 mM), batch 14, day 14): 98.6%
- Percentage of Compound 1 remaining compared to T = 0 ([5]; CaCO3 (0.425 mM), batch 14, day 0): 100%
- Percentage of Compound 1 remaining compared to T = 0 ([5]; CaCO3 (0.425 mM), batch 14, day 7): 98.1%
- Percentage of Compound 1 remaining compared to T = 0 ([5]; CaCO3 (0.425 mM), batch 14, day 14): 98.4%
- Percentage of Compound 1 remaining compared to T = 0 ([5]; CaCO3 (0.85 mM), batch 14, day 0): 100%
- Percentage of Compound 1 remaining compared to T = 0 ([5]; CaCO3 (0.85 mM), batch 14, day 7): 97.8%
- Percentage of Compound 1 remaining compared to T = 0 ([5]; CaCO3 (0.85 mM), batch 14, day 14): 97.1%
- Percentage of Compound 1 remaining compared to T = 0 ([5]; CaCO3 (1.7 mM), batch 14, day 0): 100%
- Percentage of Compound 1 remaining compared to T = 0 ([5]; CaCO3 (1.7 mM), batch 14, day 7): 93.8%
- Percentage of Compound 1 remaining compared to T = 0 ([5]; CaCO3 (1.7 mM), batch 14, day 14): 90.8%
- Percentage of Compound 1 remaining compared to T = 0 ([5]; CaCO3 (3.4 mM), batch 14, day 0): 100%
- Percentage of Compound 1 remaining compared to T = 0 ([5]; CaCO3 (3.4 mM), batch 14, day 7): 83.4%
- Percentage of Compound 1 remaining compared to T = 0 ([5]; CaCO3 (3.4 mM), batch 14, day 14): 71.4%
- Papp A→B at 1 h, 0.01 mM [6]: 0.412 ×10⁻⁶ cm/s
- Apical to Basolateral transfer, rank among prodrugs tested (Caco-2 cells): highest
SMILES: COC(=O)CCC(=O)SCCNC(C)=O [Compound 1, Methyl 3-[(2-acetylaminoethylthio)carbonyl]propionate]
